Laboratory results published in ChEMBL document CHEMBL4819120, “Identification of non-covalent 3C-like protease inhibitors against severe acute respiratory syndrome coronavirus-2 via virtual screening of a Korean compound library” (Bioorg Med Chem Lett, 2021).

Experiments:
[1] = Inhibition of SARS-CoV-2 3CL protease using DABCYL-KTSAVLQ-SGFRKME-EDANS fluorogenic peptide as substrate by fluorescence assay; set-up: species or system Severe acute respiratory syndrome coronavirus 2
[2] = tested on: SARS-CoV-2; assay: microbe, parasite or virus in culture; conditions: Severe acute respiratory syndrome coronavirus 2, Vero C1008
Description: Antiviral activity against SARS-CoV-2 infected in monkey Vero E6 cells

[3] = tested on: Vero C1008; assay: Cytotoxicity against African green monkey Vero E6 cells; format: cell-based; conditions: chlorocebus sabaeus

Work on `Cc1cc(C)cc(Nc2nc(C)cc3nn(CC(=O)Nc4cc(F)ccc4F)c(=O)n23)c1` yielded an IC50 [1] of 8 µM, an EC50 [2] of 141 µM and a CC50 [3] of 469 µM.
Work on `Cc1ccc(Cl)cc1NC(=O)Cn1nc2c(Oc3ccc(C(C)C)cc3)nccn2c1=O` yielded an IC50 [1] of 8.9 µM.
For `Cc1ccc(Cn2c(=O)c3ccccc3n3c(=O)n(CC(=O)Nc4ccc(F)cc4F)nc23)cc1`, the IC50 [1] was 9.5 µM.
`Cc1cc(C)cc(Nc2nc(C)cc3nn(CC(=O)Nc4ccccc4F)c(=O)n23)c1` gave an IC50 [1] of 10.9 µM.
In the case of `O=C(Cn1c2ccccc2n2c(=O)cc(-c3ccc(Cl)cc3)nc12)Nc1ccc(F)cc1F`, the IC50 [1] is reported as 5.7 µM, the EC50 [2] is reported as 39.9 µM and the CC50 [3] is reported as 454 µM.
`Cc1cc2nn(CC(=O)Nc3ccccc3F)c(=O)n2c(Nc2ccccc2C)n1` showed an IC50 [1] of 8.7 µM.
Work on `CCc1ccc(NC(=O)Cn2nc3n(Cc4ccc(F)cc4)c(=O)c4ccccc4n3c2=O)cc1` yielded an IC50 [1] of 12.1 µM.
